Numbers after ± are expanded uncertainties.
Details: Liquid, Vibrating tube method

CCCCCCCC [octane]
Details	mass density [kg/m3]
288.15 K, 100 kPa	706.5 ± 1.7
288.15 K, 1000 kPa	707.2 ± 1.7
288.15 K, 5000 kPa	710.3 ± 1.7
288.15 K, 10000 kPa	714.1 ± 1.7
288.15 K, 15000 kPa	717.7 ± 1.7
288.15 K, 20000 kPa	721.2 ± 1.8
288.15 K, 25000 kPa	724.5 ± 1.8
288.15 K, 30000 kPa	727.7 ± 1.8
288.15 K, 35000 kPa	730.8 ± 1.8
288.15 K, 40000 kPa	733.7 ± 1.8
288.15 K, 45000 kPa	736.5 ± 1.8
288.15 K, 50000 kPa	739.2 ± 1.8
288.15 K, 55000 kPa	741.7 ± 1.8
288.15 K, 60000 kPa	744.1 ± 1.9
293.15 K, 100 kPa	702.5 ± 1.7
293.15 K, 101 kPa	702.58 ± 0.25
293.15 K, 1000 kPa	703.2 ± 1.7
293.15 K, 5000 kPa	706.4 ± 1.7
293.15 K, 10000 kPa	710.3 ± 1.7
293.15 K, 15000 kPa	714 ± 1.7
293.15 K, 20000 kPa	717.6 ± 1.8
293.15 K, 25000 kPa	721 ± 1.8
293.15 K, 30000 kPa	724.3 ± 1.8
293.15 K, 35000 kPa	727.5 ± 1.8
293.15 K, 40000 kPa	730.5 ± 1.8
293.15 K, 45000 kPa	733.3 ± 1.8
293.15 K, 50000 kPa	736 ± 1.8
293.15 K, 55000 kPa	738.6 ± 1.9
293.15 K, 60000 kPa	741 ± 1.9
298.15 K, 100 kPa	698.5 ± 1.7
298.15 K, 1000 kPa	699.2 ± 1.7
298.15 K, 5000 kPa	702.5 ± 1.7
298.15 K, 10000 kPa	706.5 ± 1.7
298.15 K, 15000 kPa	710.3 ± 1.7
298.15 K, 20000 kPa	714 ± 1.8
298.15 K, 25000 kPa	717.6 ± 1.8
298.15 K, 30000 kPa	720.9 ± 1.8
298.15 K, 35000 kPa	724.1 ± 1.8
298.15 K, 40000 kPa	727.2 ± 1.8
298.15 K, 45000 kPa	730.1 ± 1.8
298.15 K, 50000 kPa	732.9 ± 1.8
298.15 K, 55000 kPa	735.5 ± 1.9
298.15 K, 60000 kPa	738 ± 1.9
303.15 K, 100 kPa	694.4 ± 1.7
303.15 K, 101 kPa	694.48 ± 0.25
303.15 K, 1000 kPa	695.2 ± 1.7
303.15 K, 5000 kPa	698.6 ± 1.7
303.15 K, 10000 kPa	702.7 ± 1.7
303.15 K, 15000 kPa	706.7 ± 1.7
303.15 K, 20000 kPa	710.5 ± 1.8
303.15 K, 25000 kPa	714.1 ± 1.8
303.15 K, 30000 kPa	717.5 ± 1.8
303.15 K, 35000 kPa	720.9 ± 1.8
303.15 K, 40000 kPa	724 ± 1.8
303.15 K, 45000 kPa	727 ± 1.8
303.15 K, 50000 kPa	729.8 ± 1.8
303.15 K, 55000 kPa	732.5 ± 1.9
303.15 K, 60000 kPa	735 ± 1.9
308.15 K, 100 kPa	690.4 ± 1.7
308.15 K, 1000 kPa	691.2 ± 1.7
308.15 K, 5000 kPa	694.7 ± 1.7
308.15 K, 10000 kPa	698.9 ± 1.7
308.15 K, 15000 kPa	703 ± 1.7
308.15 K, 20000 kPa	706.9 ± 1.8
308.15 K, 25000 kPa	710.6 ± 1.8
308.15 K, 30000 kPa	714.2 ± 1.8
308.15 K, 35000 kPa	717.5 ± 1.8
308.15 K, 40000 kPa	720.8 ± 1.8
308.15 K, 45000 kPa	723.8 ± 1.8
308.15 K, 50000 kPa	726.7 ± 1.8
308.15 K, 55000 kPa	729.4 ± 1.9
308.15 K, 60000 kPa	731.9 ± 1.9
313.15 K, 100 kPa	686.3 ± 1.7
313.15 K, 101 kPa	686.32 ± 0.25
313.15 K, 1000 kPa	687.1 ± 1.7
313.15 K, 5000 kPa	690.8 ± 1.7
313.15 K, 10000 kPa	695.1 ± 1.7
313.15 K, 15000 kPa	699.3 ± 1.7
313.15 K, 20000 kPa	703.3 ± 1.8
313.15 K, 25000 kPa	707.2 ± 1.8
313.15 K, 30000 kPa	710.8 ± 1.8
313.15 K, 35000 kPa	714.3 ± 1.8
313.15 K, 40000 kPa	717.6 ± 1.8
313.15 K, 45000 kPa	720.7 ± 1.8
313.15 K, 50000 kPa	723.6 ± 1.8
313.15 K, 55000 kPa	726.3 ± 1.9
313.15 K, 60000 kPa	728.9 ± 1.9
318.15 K, 100 kPa	682.2 ± 1.7
318.15 K, 1000 kPa	683 ± 1.7
318.15 K, 5000 kPa	686.8 ± 1.7
318.15 K, 10000 kPa	691.3 ± 1.7
318.15 K, 15000 kPa	695.6 ± 1.7
318.15 K, 20000 kPa	699.7 ± 1.8
318.15 K, 25000 kPa	703.6 ± 1.8
318.15 K, 30000 kPa	707.4 ± 1.8
318.15 K, 35000 kPa	711 ± 1.8
318.15 K, 40000 kPa	714.3 ± 1.8
318.15 K, 45000 kPa	717.5 ± 1.8
318.15 K, 50000 kPa	720.5 ± 1.8
318.15 K, 55000 kPa	723.3 ± 1.9
318.15 K, 60000 kPa	725.9 ± 1.9
323.15 K, 100 kPa	678 ± 1.7
323.15 K, 101 kPa	678.09 ± 0.25
323.15 K, 1000 kPa	678.9 ± 1.7
323.15 K, 5000 kPa	682.8 ± 1.7
323.15 K, 10000 kPa	687.4 ± 1.7
323.15 K, 15000 kPa	691.9 ± 1.7
323.15 K, 20000 kPa	696.1 ± 1.8
323.15 K, 25000 kPa	700.2 ± 1.8
323.15 K, 30000 kPa	704 ± 1.8
323.15 K, 35000 kPa	707.7 ± 1.8
323.15 K, 40000 kPa	711.1 ± 1.8
323.15 K, 45000 kPa	714.4 ± 1.8
323.15 K, 50000 kPa	717.4 ± 1.8
323.15 K, 55000 kPa	720.3 ± 1.9
323.15 K, 60000 kPa	722.9 ± 1.9
328.15 K, 100 kPa	673.8 ± 1.7
328.15 K, 1000 kPa	674.7 ± 1.7
328.15 K, 5000 kPa	678.7 ± 1.7
328.15 K, 10000 kPa	683.5 ± 1.7
328.15 K, 15000 kPa	688.1 ± 1.7
328.15 K, 20000 kPa	692.5 ± 1.8
328.15 K, 25000 kPa	696.7 ± 1.8
328.15 K, 30000 kPa	700.7 ± 1.8
328.15 K, 35000 kPa	704.4 ± 1.8
328.15 K, 40000 kPa	707.9 ± 1.8
328.15 K, 45000 kPa	711.3 ± 1.8
328.15 K, 50000 kPa	714.4 ± 1.9
328.15 K, 55000 kPa	717.3 ± 1.9
328.15 K, 60000 kPa	719.9 ± 1.9
333.15 K, 100 kPa	669.7 ± 1.7
333.15 K, 1000 kPa	670.6 ± 1.7
333.15 K, 5000 kPa	674.8 ± 1.7
333.15 K, 10000 kPa	679.7 ± 1.7
333.15 K, 15000 kPa	684.5 ± 1.7
333.15 K, 20000 kPa	689 ± 1.8
333.15 K, 25000 kPa	693.2 ± 1.8
333.15 K, 30000 kPa	697.3 ± 1.8
333.15 K, 35000 kPa	701.1 ± 1.8
333.15 K, 40000 kPa	704.7 ± 1.8
333.15 K, 45000 kPa	708.1 ± 1.8
333.15 K, 50000 kPa	711.3 ± 1.9
333.15 K, 55000 kPa	714.2 ± 1.9
333.15 K, 60000 kPa	716.9 ± 1.9
343.15 K, 100 kPa	661.2 ± 1.7
343.15 K, 1000 kPa	662.2 ± 1.7
343.15 K, 5000 kPa	666.6 ± 1.7
343.15 K, 10000 kPa	671.9 ± 1.7
343.15 K, 15000 kPa	677 ± 1.7
343.15 K, 20000 kPa	681.8 ± 1.8
343.15 K, 25000 kPa	686.3 ± 1.8
343.15 K, 30000 kPa	690.6 ± 1.8
343.15 K, 35000 kPa	694.6 ± 1.8
343.15 K, 40000 kPa	698.4 ± 1.8
343.15 K, 45000 kPa	701.9 ± 1.8
343.15 K, 50000 kPa	705.2 ± 1.9
343.15 K, 55000 kPa	708.2 ± 1.9
343.15 K, 60000 kPa	711 ± 1.9
353.15 K, 100 kPa	652.6 ± 1.7
353.15 K, 1000 kPa	653.7 ± 1.7
353.15 K, 5000 kPa	658.4 ± 1.7
353.15 K, 10000 kPa	664.1 ± 1.7
353.15 K, 15000 kPa	669.4 ± 1.8
353.15 K, 20000 kPa	674.5 ± 1.8
353.15 K, 25000 kPa	679.3 ± 1.8
353.15 K, 30000 kPa	683.9 ± 1.8
353.15 K, 35000 kPa	688.1 ± 1.8
353.15 K, 40000 kPa	692.1 ± 1.8
353.15 K, 45000 kPa	695.7 ± 1.8
353.15 K, 50000 kPa	699.1 ± 1.9
353.15 K, 55000 kPa	702.3 ± 1.9
353.15 K, 60000 kPa	705.1 ± 1.9
363.15 K, 100 kPa	643.8 ± 1.7
363.15 K, 1000 kPa	645 ± 1.7
363.15 K, 5000 kPa	650.1 ± 1.7
363.15 K, 10000 kPa	656.1 ± 1.7
363.15 K, 15000 kPa	661.9 ± 1.8
363.15 K, 20000 kPa	667.3 ± 1.8
363.15 K, 25000 kPa	672.4 ± 1.8
363.15 K, 30000 kPa	677.2 ± 1.8
363.15 K, 35000 kPa	681.6 ± 1.8
363.15 K, 40000 kPa	685.8 ± 1.8
363.15 K, 45000 kPa	689.6 ± 1.8
363.15 K, 50000 kPa	693.1 ± 1.9
363.15 K, 55000 kPa	696.3 ± 1.9
363.15 K, 60000 kPa	699.2 ± 1.9
373.15 K, 100 kPa	634.7 ± 2.7
373.15 K, 1000 kPa	636.3 ± 2.7
373.15 K, 5000 kPa	641.8 ± 2.7
373.15 K, 10000 kPa	648.2 ± 2.7
373.15 K, 15000 kPa	654.4 ± 2.7
373.15 K, 20000 kPa	660.1 ± 2.7
373.15 K, 25000 kPa	665.5 ± 2.8
373.15 K, 30000 kPa	670.6 ± 2.8
373.15 K, 35000 kPa	675.3 ± 2.8
373.15 K, 40000 kPa	679.6 ± 2.8
373.15 K, 45000 kPa	683.6 ± 2.8
373.15 K, 50000 kPa	687.3 ± 2.8
373.15 K, 55000 kPa	690.5 ± 2.8
373.15 K, 60000 kPa	693.5 ± 2.8
393.15 K, 100 kPa	616.3 ± 2.7
393.15 K, 1000 kPa	618.1 ± 2.7
393.15 K, 5000 kPa	624.3 ± 2.7
393.15 K, 10000 kPa	631.8 ± 2.7
393.15 K, 15000 kPa	638.8 ± 2.7
393.15 K, 20000 kPa	645.3 ± 2.7
393.15 K, 25000 kPa	651.5 ± 2.8
393.15 K, 30000 kPa	657.1 ± 2.8
393.15 K, 35000 kPa	662.3 ± 2.8
393.15 K, 40000 kPa	667.1 ± 2.8
393.15 K, 45000 kPa	671.4 ± 2.8
393.15 K, 50000 kPa	675.3 ± 2.8
393.15 K, 55000 kPa	678.8 ± 2.8
393.15 K, 60000 kPa	681.8 ± 2.8
413.15 K, 1000 kPa	599.3 ± 2.7
413.15 K, 5000 kPa	606.6 ± 2.7
413.15 K, 10000 kPa	615.1 ± 2.7
413.15 K, 15000 kPa	623.1 ± 2.7
413.15 K, 20000 kPa	630.6 ± 2.7
413.15 K, 25000 kPa	637.4 ± 2.8
413.15 K, 30000 kPa	643.8 ± 2.8
413.15 K, 35000 kPa	649.6 ± 2.8
413.15 K, 40000 kPa	654.8 ± 2.8
413.15 K, 45000 kPa	659.5 ± 2.8
413.15 K, 50000 kPa	663.6 ± 2.8
413.15 K, 55000 kPa	667.2 ± 2.8
413.15 K, 60000 kPa	670.2 ± 2.9
